# Assay results taken from article PMC11108815 (Heliyon, 2024).
# Marks after values point to notes of the source that are not given here.
# How the values were obtained:
# [1] = Pharmacokinetics in rat plasma; format: in vivo, Wistar rats; settings: for AUC(0-inf): AUC0-∞; for CL/F: CLz/F; for MRT last: MRT0-t; for MRT inf: MRT0-∞
# [2] = Stability test of QC samples; format: physicochemical, rat
# [3] = FS-C: normal (blank) rats, oral FS 100 mg kg^−1, n = 6
# [4] = FS-M: microcirculation dysfunction model rats, oral FS 100 mg kg^−1, n = 6
# [5] = FT-C: normal (blank) rats, oral FT 100 mg kg^−1, n = 6
# [6] = FT-M: microcirculation dysfunction model rats, oral FT 100 mg kg^−1, n = 6
# [7] = Store at 4 °C for 24 h, high concentration QC sample in rat plasma
# [8] = Store at 4 °C for 24 h, low concentration QC sample in rat plasma
# [9] = Store at 4 °C for 24 h, medium concentration QC sample in rat plasma
# [10] = Store at room temperature for 12 h, high concentration QC sample in rat plasma
# [11] = Store at room temperature for 12 h, low concentration QC sample in rat plasma
# [12] = Store at room temperature for 12 h, medium concentration QC sample in rat plasma
# [13] = Store at −20 °C for 20 days, high concentration QC sample in rat plasma
# [14] = Store at −20 °C for 20 days, low concentration QC sample in rat plasma
# [15] = Store at −20 °C for 20 days, medium concentration QC sample in rat plasma
# [16] = Three freeze-thaw cycles, high concentration QC sample in rat plasma
# [17] = Three freeze-thaw cycles, low concentration QC sample in rat plasma
# [18] = Three freeze-thaw cycles, medium concentration QC sample in rat plasma
# [19] = Wistar, rat, plasma, po, 100 mg/kg, AUC0-t, FS-C: normal (blank) rats, oral FS 100 mg kg^−1, n = 6
# [20] = Wistar, rat, plasma, po, 100 mg/kg, AUC0-t, FT-C: normal (blank) rats, oral FT 100 mg kg^−1, n = 6
# [21] = Wistar, rat, plasma, po, 100 mg/kg, FS-C: normal (blank) rats, oral FS 100 mg kg^−1, n = 6
# [22] = Wistar, rat, plasma, po, 100 mg/kg, FT-C: normal (blank) rats, oral FT 100 mg kg^−1, n = 6
# [23] = Wistar, rat, plasma, po, 100 mg/kg, Cmax, FS-C: normal (blank) rats, oral FS 100 mg kg^−1, n = 6
# [24] = Wistar, rat, plasma, po, 100 mg/kg, Cmax, FT-C: normal (blank) rats, oral FT 100 mg kg^−1, n = 6
# [25] = Wistar, rat, plasma, po, 100 mg/kg, T1/2, FS-C: normal (blank) rats, oral FS 100 mg kg^−1, n = 6
# [26] = Wistar, rat, plasma, po, 100 mg/kg, T1/2, FT-C: normal (blank) rats, oral FT 100 mg kg^−1, n = 6
# [27] = Wistar, rat, plasma, po, 100 mg/kg, Tmax, FS-C: normal (blank) rats, oral FS 100 mg kg^−1, n = 6
# [28] = Wistar, rat, plasma, po, 100 mg/kg, Tmax, FT-C: normal (blank) rats, oral FT 100 mg kg^−1, n = 6
# [29] = Wistar, rat, plasma, po, 100 mg/kg, Tmax, control group, after oral administration of FS or FT
# [30] = both the control and model groups treated with oral FS or FT
structure (smiles),measurement,setting,value
O=C(O)[C@H](O)Cc1ccc(O)c(O)c1 [Danshensu],AUC0-∞,[1]; [3],641.77 ± 218.27 µg·h/L
same,AUC(0-t),[1]; [3],542.82 ± 141.09 ng·h/mL
same,CLz/F,[1]; [3],0.02 ± 0.01 L/h/kg
same,Cmax,[1]; [3],88.45 ± 17.93 ng/mL
same,MRT0-t,[1]; [3],6.53 ± 2.11 h
same,MRT0-∞,[1]; [3],11.93 ± 15.11 h
same,T1/2,[1]; [3],5.74 ± 11.19 h
same,Tmax,[1]; [3],0.67 ± 0.37 h
same,AUC0-∞,[1]; [4],947.33 ± 140.96 ^c μg·h·L^−1
same,AUC(0-t),[1]; [4],880.02 ± 141.73 ^d μg·h·L^−1
same,CLz/F,[1]; [4],0.01 ± 0.00 ^c L·h^−1·kg^−1
same,Cmax,[1]; [4],105.53 ± 11.68 ng/mL
same,MRT0-t,[1]; [4],7.53 ± 0.85 h
same,MRT0-∞,[1]; [4],9.53 ± 3.95 h
same,T1/2,[1]; [4],4.47 ± 3.92 h
same,Tmax,[1]; [4],0.74 ± 1.60 h
same,AUC0-∞,[1]; [5],588.72 ± 114.83 µg·h/L
same,AUC(0-t),[1]; [5],584.67 ± 122.39 ng·h/mL
same,CLz/F,[1]; [5],0.02 ± 0.00 L/h/kg
same,Cmax,[1]; [5],99.66 ± 15.57 ng/mL
same,MRT0-t,[1]; [5],7.54 ± 0.95 h
same,MRT0-∞,[1]; [5],7.81 ± 0.63 h
same,T1/2,[1]; [5],2.18 ± 2.22 h
same,Tmax,[1]; [5],0.47 ± 0.07 h
same,AUC0-∞,[1]; [6],767.88 ± 279.35 µg·h/L
same,AUC(0-t),[1]; [6],658.64 ± 172.02 ng·h/mL
same,CLz/F,[1]; [6],0.02 ± 0.01 L/h/kg
same,Cmax,[1]; [6],165.48 ± 7.83^f μg·L^−1
same,MRT0-t,[1]; [6],"5.33 ± 0.98 ^a^, ^e h"
same,MRT0-∞,[1]; [6],10.76 ± 12.84 h
same,T1/2,[1]; [6],6.40 ± 11.48 h
same,Tmax,[1]; [6],1.00 ± 0.00 ^f h
same,AUC0-t in model group compared with control group,"[1]; after modeling, p < 0.01, 0.05",significantly higher
same,AUC0-∞ in model group compared with control group,"[1]; after modeling, p < 0.01, 0.05",significantly higher
same,MRT0-t in the model group treated with FT,[1]; compared with the control group treated with FT and the model group treated with FS,decreased
same,shape of the drug-time curve,[1]; control group with oral FS,bimodal phenomenon
same,CLz/F after modeling compared with control group,[1]; oral administration of FS,decrease
same,Cmax after modeling compared with control group,[1]; oral administration of FT,significant increase
same,"Stability, Accuracy (RE, %)",[2]; [7],6.29%
same,"Stability, Accuracy (RE, %)",[2]; [8],−5.50%
same,"Stability, Accuracy (RE, %)",[2]; [9],5.99%
same,"Stability, Accuracy (RE, %)",[2]; [10],9.76%
same,"Stability, Accuracy (RE, %)",[2]; [11],−2.61%
same,"Stability, Accuracy (RE, %)",[2]; [12],1.50%
same,"Stability, Accuracy (RE, %)",[2]; [13],−8.83%
same,"Stability, Accuracy (RE, %)",[2]; [14],6.50%
same,"Stability, Accuracy (RE, %)",[2]; [15],0.73%
same,"Stability, Accuracy (RE, %)",[2]; [16],−3.63%
same,"Stability, Accuracy (RE, %)",[2]; [17],2.54%
same,"Stability, Accuracy (RE, %)",[2]; [18],−10.44%
O=C(/C=C/c1ccc(O)c2c1[C@H](C(=O)O)[C@@H](c1ccc(O)c(O)c1)O2)O[C@H](Cc1ccc(O)c(O)c1)C(=O)O [Lithospermic acid],AUC(0-t),[1]; [19],128 ± 40.5 ng·h/mL
same,AUC(0-t),[1]; [20],119 ± 48.8 ng·h/mL
same,AUC(0-inf),[1]; [21],164 ± 85 ng·h/mL
same,AUC(0-inf),[1]; [22],119 ± 48.9 ng·h/mL
same,CL/F,[1]; [21],150 mL/min/kg
same,CL/F,[1]; [22],289 mL/min/kg
same,Cmax,[1]; [23],11.4 ± 1.33 ng/mL
same,Cmax,[1]; [24],13.7 ± 2.76 ng/mL
same,MRT last,[1]; [21],6.61 ± 1.61 h
same,MRT last,[1]; [22],8.67 ± 3.71 h
same,MRT inf,[1]; [21],11.1 ± 10.8 h
same,MRT inf,[1]; [22],8.67 ± 3.71 h
same,half-life,[1]; [25],5.06 ± 8.9 h
same,half-life,[1]; [26],1.03 ± 0.45 h
same,Tmax,[1]; [27],0.31 ± 0.16 h
same,Tmax,[1]; [28],0.22 ± 0.13 h
same,Tmax,[1]; [29],< 0.39 h
same,AUC0-t in model group compared with control group,"[1]; after modeling, p < 0.01, 0.05",significantly higher
same,shape of the drug-time curve,[1]; [30],bimodal phenomenon
same,Cmax after modeling compared with control group,[1]; oral administration of FS,increased
same,"Stability, Accuracy (RE, %)",[2]; [7],7.65%
same,"Stability, Accuracy (RE, %)",[2]; [8],6.82%
same,"Stability, Accuracy (RE, %)",[2]; [9],6.58%
same,"Stability, Accuracy (RE, %)",[2]; [10],11.92%
same,"Stability, Accuracy (RE, %)",[2]; [11],−5.80%
same,"Stability, Accuracy (RE, %)",[2]; [12],0.69%
same,"Stability, Accuracy (RE, %)",[2]; [13],−0.73%
same,"Stability, Accuracy (RE, %)",[2]; [14],−8.45%
same,"Stability, Accuracy (RE, %)",[2]; [15],0.15%
same,"Stability, Accuracy (RE, %)",[2]; [16],−10.67%
same,"Stability, Accuracy (RE, %)",[2]; [17],6.56%
same,"Stability, Accuracy (RE, %)",[2]; [18],9.01%
C[C@@H]1O[C@@H](OC[C@H]2O[C@@H](Oc3c(-c4ccc(O)c(O)c4)oc4cc(O)cc(O)c4c3=O)[C@H](O)[C@@H](O)[C@@H]2O)[C@H](O)[C@H](O)[C@H]1O [Rutin],AUC(0-t),[1]; [20],77.9 ± 11.9 ng·h/mL
same,AUC(0-inf),[1]; [22],116 ± 83.4 ng·h/mL
same,CL/F,[1]; [22],342 mL/min/kg
same,Cmax,[1]; [24],5.77 ± 0.62 ng/mL
same,MRT last,[1]; [22],7.51 ± 0.81 h
same,MRT inf,[1]; [22],15.4 ± 18.6 h
same,half-life,[1]; [26],7.39 ± 14.3 h
same,Tmax,[1]; [28],1.06 ± 1.47 h
same,Tmax,[1]; [29],> 0.47 h
same,"Stability, Accuracy (RE, %)",[2]; [7],0.42%
same,"Stability, Accuracy (RE, %)",[2]; [8],3.07%
same,"Stability, Accuracy (RE, %)",[2]; [9],7.93%
same,"Stability, Accuracy (RE, %)",[2]; [10],11.51%
same,"Stability, Accuracy (RE, %)",[2]; [11],−6.74%
same,"Stability, Accuracy (RE, %)",[2]; [12],0.45%
same,"Stability, Accuracy (RE, %)",[2]; [13],−1.16%
same,"Stability, Accuracy (RE, %)",[2]; [14],7.31%
same,"Stability, Accuracy (RE, %)",[2]; [15],−5.30%
same,"Stability, Accuracy (RE, %)",[2]; [16],4.10%
same,"Stability, Accuracy (RE, %)",[2]; [17],−8.01%
same,"Stability, Accuracy (RE, %)",[2]; [18],−5.39%
O=C(/C=C/c1ccc(O)c(O)c1/C=C/c1ccc(O)c(O)c1)O[C@H](Cc1ccc(O)c(O)c1)C(=O)O [Salvianolic acid A],AUC(0-t),[1]; [19],107 ± 46.1 ng·h/mL
same,AUC(0-t),[1]; [20],122 ± 30.9 ng·h/mL
same,AUC(0-inf),[1]; [21],168 ± 139 ng·h/mL
same,AUC(0-inf),[1]; [22],162 ± 87.3 ng·h/mL
same,CL/F,[1]; [21],74.8 mL/min/kg
same,CL/F,[1]; [22],37 mL/min/kg
same,Cmax,[1]; [23],13.2 ± 8.35 ng/mL
same,Cmax,[1]; [24],8.58 ± 1.35 ng/mL
same,MRT last,[1]; [21],7.12 ± 2.26 h
same,MRT last,[1]; [22],8.8 ± 1.62 h
same,MRT inf,[1]; [21],17 ± 17.6 h
same,MRT inf,[1]; [22],15 ± 11.6 h
same,half-life,[1]; [25],9.92 ± 13.7 h
same,half-life,[1]; [26],7.38 ± 9.48 h
same,Tmax,[1]; [27],0.63 ± 0.42 h
same,Tmax,[1]; [28],0.56 ± 0.36 h
same,Tmax,[1]; [29],> 0.47 h
same,shape of the drug-time curve,[1]; [30],bimodal phenomenon
same,"Stability, Accuracy (RE, %)",[2]; [7],−0.93%
same,"Stability, Accuracy (RE, %)",[2]; [8],1.81%
same,"Stability, Accuracy (RE, %)",[2]; [9],11.49%
same,"Stability, Accuracy (RE, %)",[2]; [10],3.31%
same,"Stability, Accuracy (RE, %)",[2]; [11],−1.96%
same,"Stability, Accuracy (RE, %)",[2]; [12],−3.89%
same,"Stability, Accuracy (RE, %)",[2]; [13],2.45%
same,"Stability, Accuracy (RE, %)",[2]; [14],7.09%
same,"Stability, Accuracy (RE, %)",[2]; [15],−9.12%
same,"Stability, Accuracy (RE, %)",[2]; [16],−10.32%
same,"Stability, Accuracy (RE, %)",[2]; [17],1.08%
same,"Stability, Accuracy (RE, %)",[2]; [18],11.33%
